Source: US20120238449A1, “SYNERGISTIC HERBICIDAL COMPOSITION CONTAINING PENOXSULAM AND PYROXSULAM” (priority 2011, published 2012)

How the values were obtained:
Type in all cases: in vivo
[1] = system: common lambsquarter (Chenopodium album, CHEAL); assay: Field trial, percent visual weed control of CHEAL; settings: 39-51 days after application
Description: (§1) These trials were conducted under field conditions in France, Poland and Syria. Trial sites were located in commercially grown crops wheat, barley and corn. The crops were grown using normal cultural practices for fertilization, seeding, and maintenance to ensure good growth of the crop and the weeds. The trials were conducted using typical small plot herbicide research methodology. Trial plots were between 1 to 2.5 meters (m) wide by 6 to 42 m long. All treatments were applied using a randomized complete block trial design with 2 to 4 replications per treatment. The trial sites had naturally occurring populations of weeds. The weed spectrum included, but was not limited to, wild oat (Avena fatua, AVEFA); Shepherd's purse (Capsella bursa-pastoris, CAPBP); common lambsquarter (Chenopodium album, CHEAL); barnyardgrass (Echinochloa crus-galli, ECHCG); ryegrass (Lolium spp., LOLSS); short-spiked canarygrass (Phalaris brachystachys, PHABR); awned canarygrass (Phalaris paradoxa, PHAPA); narrow-leaved plantain (Plantago lanceolata, PLALA); annual […] (Poa annua, POAAN); and wild buckwheat (Polygonum convolvulus, POLCO).
(§2) Treatments consisted of tank mixes of penoxsulam and pyroxsulam or pyroxsulam+cloquintocet (mexyl) applied in water. Where used, Actirob B adjuvant was applied at use rate of 0.2 to 1 liter per hectare (L/ha) with pyroxsulam containing treatments and in tankmixes. […]

[2] = system: short-spiked canarygrass (Phalaris brachystachys, PHABR); assay: Field trial, percent visual weed control of PHABR; settings: 28 to 56 days after application
Description: as §1, §2

[3] = system: awned canarygrass (Phalaris paradoxa, PHAPA); assay: Field trial, percent visual weed control of PHAPA; settings: 28 to 56 days after application
Description: as §1, §2

[4] = system: narrow-leaved plantain (Plantago lanceolata, PLALA); assay: Field trial, percent visual weed control of PLALA; settings: 14 to 61 days after application
Description: as §1, §2

[5] = system: ryegrass (Lolium spp., LOLSS); assay: Field trial, percent visual weed control of LOLSS; settings: 14 to 61 days after application
Description: as §1, §2

[6] = system: annual blackgrass (Poa annua, POANN); assay: Field trial, percent visual weed control of POANN; settings: 14 to 61 days after application
Description: as §1, §2

[7] = system: Shepherd's purse (Capsella bursa-pastoris, CAPBP); assay: Field trial, percent visual weed control of CAPBP; settings: 39-51 days after application
Description: as §1, §2

[8] = system: barnyardgrass (Echinochloa crus-galli, ECHCG); assay: Field trial, percent visual weed control of ECHCG; settings: 39-51 days after application
Description: as §1, §2

[9] = system: wild buckwheat (Polygonum convolvulus, POLCO); assay: Field trial, percent visual weed control of POLCO; settings: 39-51 days after application
Description: as §1, §2

[10] = system: wild oat (Avena fatua, AVEFA); assay: Field trial, percent visual weed control of AVEFA; settings: 28 to 56 days after application
Description: as §1, §2

Compound: COc1cnc(OC)n2nc(NS(=O)(=O)c3c(OCC(F)F)cccc3C(F)(F)F)nc12 [Penoxsulam, 2-(2,2-difluoroethoxy)-N-(5,8-dimethoxy-[1,2,4]triazolol1,5-clpyrimidin-2-yl)-6-(trifluoromethyl)benzenesulfonamide]
- Control of CHEAL, Obs (Observed Response) ([1]; penoxsulam 5 g ai/ha alone): 10%
- Control of PHABR, Obs (Observed Response) ([2]; penoxsulam 20 g ai/ha alone): 0%
- Control of PHAPA, Obs (Observed Response) ([3]; penoxsulam 20 g ai/ha alone): 0%
- Control of PLALA, Obs (Observed Response) ([4]; penoxsulam 20 g ai/ha alone): 13%
- Control of LOLSS, Obs (Observed Response) ([5]; penoxsulam 20 g ai/ha alone): 20%
- Control of POANN, Obs (Observed Response) ([6]; penoxsulam 20 g ai/ha alone): 17%
- Control of CAPBP, Obs (Observed Response) ([7]; penoxsulam 5 g ai/ha alone): 20%
- Control of ECHCG, Obs (Observed Response) ([8]; penoxsulam 5 g ai/ha alone): 0%
- Control of POLCO, Obs (Observed Response) ([9]; penoxsulam 5 g ai/ha alone): 50%
- Control of AVEFA, Obs (Observed Response) ([10]; penoxsulam 20 g ai/ha alone): 0%

Compound: COc1cc(OC)n2nc(NS(=O)(=O)c3c(C(F)(F)F)ccnc3OC)nc2n1 [Pyroxsulam, N-(5,7-dimethoxy[1,2,4]triazolol1,5-alpyrimidin-2-yl)-2-methoxy-4-(trifluoromethyl)-3-pyridinesulfonamide]
- Control of CHEAL, Obs (Observed Response) ([1]; pyroxsulam 4 g ai/ha alone): 65%
- Control of PHABR, Obs (Observed Response) ([2]; pyroxsulam 18 g ai/ha alone): 38%
- Control of PHAPA, Obs (Observed Response) ([3]; pyroxsulam 18 g ai/ha alone): 80%
- Control of PLALA, Obs (Observed Response) ([4]; pyroxsulam 20 g ai/ha alone): 7%
- Control of LOLSS, Obs (Observed Response) ([5]; pyroxsulam 20 g ai/ha alone): 0%
- Control of POANN, Obs (Observed Response) ([6]; pyroxsulam 20 g ai/ha alone): 0%
- Control of CAPBP, Obs (Observed Response) ([7]; pyroxsulam 4 g ai/ha alone): 70%
- Control of ECHCG, Obs (Observed Response) ([8]; pyroxsulam 4 g ai/ha alone): 65%
- Control of POLCO, Obs (Observed Response) ([9]; pyroxsulam 4 g ai/ha alone): 35%
- Control of AVEFA, Obs (Observed Response) ([10]; pyroxsulam 18 g ai/ha alone): 65%
